Data taken from patent US12459891B2, “1-[1-(4-benzyloxy-3,5-difluoro-benzoyl)-4-fluoro-pyrrolidine-2-carbonyl]-pyrrolidine-2-carbonitrile” (ACCURE THERAPEUTICS, S.L., priority 2020, dated 2025).

How the values were obtained:
[1] = system: MK-801-treated mice; experiment: Novel object recognition (NOR) task, MK-801-induced cognitive deficit; format: in vivo, male C57/Bl6 mice; settings: mean ± s.e.m.
[2] = system: POP; settings: non-competitive POP inhibitor; read-out: IC50 (POP inhibition); cited from earlier work

C[C@]12N[C@H](Cc3ccccc31)c1ccccc12 [MK 801, Dizocilpine]
% discrimination index ([1]; MK 801 0.2 mg/kg sc alone (vehicle ip), intraperitoneal experiment): 21 ± 4.7% | % discrimination index ([1]; MK 801 0.2 mg/kg sc alone (vehicle po), oral experiment): 16.6 ± 5.9%

O=C(/C=C/c1ccc(O)c(O)c1)O[C@H](Cc1ccc(O)c(O)c1)C(=O)O [rosmarinic acid]
IC50 [2]: 63.7 µM
